Earlier results on two compounds are cited in patent publication US20250120985A1, “METHOD OF TREATING DIABETIC MACULAR EDEMA” (Oculis Operations Sàrl, priority 2023, published 2025).

For the data set the following is noted: 25° C.

Molecules are shown by their SMILES. In brackets after ≈: the same amount, converted by molar mass.

Regarding `OC[C@H]1O[C@@H]2O[C@H]3[C@H](O)[C@@H](O)[C@@H](O[C@H]4[C@H](O)[C@@H](O)[C@@H](O[C@H]5[C@H](O)[C@@H](O)[C@@H](O[C@H]6[C@H](O)[C@@H](O)[C@@H](O[C@H]7[C@H](O)[C@@H](O)[C@@H](O[C@H]1[C@H](O)[C@H]2O)O[C@@H]7CO)O[C@@H]6CO)O[C@@H]5CO)O[C@@H]4CO)O[C@@H]3CO` [α-cyclodextrin], the “solubility in pure water” value is 129.5 ± 0.7 mg/mL (≈ 133 mM).

Consider `OC[C@H]1O[C@@H]2O[C@H]3[C@H](O)[C@@H](O)[C@@H](O[C@H]4[C@H](O)[C@@H](O)[C@@H](O[C@H]5[C@H](O)[C@@H](O)[C@@H](O[C@H]6[C@H](O)[C@@H](O)[C@@H](O[C@H]7[C@H](O)[C@@H](O)[C@@H](O[C@H]8[C@H](O)[C@@H](O)[C@@H](O[C@H]9[C@H](O)[C@@H](O)[C@@H](O[C@H]1[C@H](O)[C@H]2O)O[C@@H]9CO)O[C@@H]8CO)O[C@@H]7CO)O[C@@H]6CO)O[C@@H]5CO)O[C@@H]4CO)O[C@@H]3CO` [γ-cyclodextrin], for which the “solubility in pure water” value is 249.2 ± 0.2 mg/mL (≈ 192 mM).
